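Cells were grown in 96-well plates and exposed to each compound for 48 hours at five concentrations; endpoints were interpolated linearly between bracketing concentrations, or set to the highest concentration if not reached. TGI is the concentration that stops growth completely.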

Our source for the TGI values is PubChem BioAssay (NCI).

Test in all cases: DTP human tumour cell line panel, 48 h
Test [1] has as its system HOP-62 NSCLC.
The subject of test [2] is MALME-3M melanoma.
The test system of test [3] is HL-60(TB) leukemia.
For test [4], the system named is KM12 colon.
The subject of test [5] is CCRF-CEM leukemia.
Test [6] concerns DMS 273 small cell lung.
Test [7] has as its system SK-MEL-5 melanoma.
Test [8] relates to SF-268 CNS.
Test [9] relates to CAKI-1 renal.
The test system of test [10] is NCI-H522 lung.
Test [11] concerns HOP-92 NSCLC.
The test system of test [12] is U251 CNS.
For test [13], the system named is NCI-H23 lung.
The test system of test [14] is UACC-257 melanoma.
Test [15] deals with A549 NSCLC.
The test system of test [16] is HCC-2998 colon.
The test system of test [17] is OVCAR-3 ovarian.
The test system of test [18] is M14 melanoma.
Test [19] deals with TK-10 renal.
Test [20] has as its system PC-3 prostate.

For `O=P1(Oc2ccc(Cl)cc2Cl)Oc2ccc3ccccc3c2-c2c(ccc3ccccc23)O1`, the TGI was 40 µM in test [1]; 46.4 µM in test [2]; 53.8 µM in test [3]; > 90.4 µM in test [4]; > 89.6 µM in test [5]; > 93.2 µM in [6]. Also, the TGI in test [7] was > 100 µM; in [8], > 100 µM; in [9], 43.3 µM; in [10] it was 50.7 µM; in test [11], 50.1 µM; in test [12], 47.5 µM. The TGI in test [13] was 75.8 µM; in test [14], > 100 µM; in test [15], > 100 µM; in [16] it was 61.4 µM; in test [17] it was 49.5 µM.
For the compound `CC(=O)NC1=C(NC(C)(C)C)C(=O)c2ccccc2C1=O`, the TGI in test [1] was > 100 µM; in test [2], 33.9 µM; in [3], 5.6 µM; in test [4] it was 92.9 µM; in [5], 9.28 µM; in test [6] it was 45.4 µM. Besides, the TGI was 32.5 µM in test [7]; 55.6 µM in [8]; 30 µM in test [9]; 34.6 µM in [11]; > 100 µM in test [12]; 35.2 µM in test [13]. In addition, the TGI in [14] is 29.4 µM; in test [15], > 100 µM; in test [16], > 100 µM; in test [18], 31.1 µM; in test [17], 33.1 µM; in [19] it was 33.5 µM.
As to `COc1ccc(N2C(=O)[C@H]3[C@H]4CC(C(C)(C)C)CC[C@H]4c4c(n(C)c5ccccc45)[C@H]3C2=O)cc1` (stereo partly specified), the TGI in [1] was > 5.62 µM; in test [2] it was > 100 µM; in test [3], > 100 µM; in test [4] it was > 61.3 µM; in test [5], > 100 µM; in test [6], > 100 µM. Further, the TGI is > 100 µM in test [7]; > 100 µM in test [8]; > 100 µM in test [9]; > 82.4 µM in [10]; > 100 µM in [11]; > 56.2 µM in test [12]. Also, the TGI in [13] was > 100 µM; in [14], > 100 µM; in test [15], > 100 µM; in [16] it was > 56.2 µM; in test [18] it was > 100 µM; in [17], > 100 µM. Moreover, the TGI in test [20] and in [19] was > 100 µM throughout.
`Cc1nc(C(N)=S)sc1C(=O)CC(=O)C(=O)Nc1ccccc1[N+](=O)[O-]`: the TGI in [1], in test [2], in [3], in [4], in test [5] and in test [6] was > 100 µM each time. The TGI in test [7], in test [8], in test [9], in test [10], in test [11] and in test [12] was > 100 µM throughout. The TGI in test [13], in [14], in test [15], in [16], in test [18] and in [17] was > 100 µM throughout. Besides, in test [19], the TGI is > 100 µM.
As for `Cc1ccc(/C(O)=C/c2nc3c(nc2NC24CC5CC(CC(C5)C2)C4)c(=O)oc2ccccc23)cc1`, the TGI in test [1], in test [2], in test [3], in test [4], in test [5] and in [6] was > 100 µM each time. Also, the TGI in test [7], in [8], in test [9], in test [10], in test [11] and in test [12] was > 100 µM throughout. Moreover, the TGI in [13], in [14], in test [15], in test [16], in test [18] and in test [17] was > 100 µM throughout. In addition, in test [19], the TGI was > 100 µM.
Take `Cc1ccccc1NC(=O)c1c(C)oc2c1C(=O)c1ccccc1C2=O`: the TGI was > 100 µM in test [1]; 27.3 µM in test [2]; 56.9 µM in test [3]; > 100 µM in [4]; 48.1 µM in test [5]; > 100 µM in test [6]. In addition, the TGI in [7] was 27.1 µM; in test [8], > 100 µM; in test [9], > 100 µM; in test [10], 35.8 µM; in test [11], 65.2 µM; in [12] it was > 20.2 µM. The TGI was 93.5 µM in [13]; 52.7 µM in [14]; > 96.1 µM in test [15]; > 100 µM in test [16]; > 69.9 µM in [18]; > 72.1 µM in [17]. Moreover, the TGI in [19] was > 100 µM.
Take `O=C(c1c(F)c(F)c(F)c(F)c1F)N1CCN(C(=O)c2c(F)c(F)c(F)c(F)c2F)C1=S`: the TGI in test [1] is 29.1 µM; in test [2], 15.8 µM; in test [3] it was > 100 µM; in [4], 18.8 µM; in [5], > 100 µM; in test [7], 19.6 µM. Besides, the TGI came to 32.6 µM in test [8]; 6.89 µM in [9]; 1.65 µM in [10]; 12.9 µM in test [11]; 22.2 µM in test [12]; 20.1 µM in [13]. In addition, the TGI in [14] was found to be 22 µM; in test [15], 29.5 µM; in test [16], 22.7 µM; in [18], 4.02 µM; in test [17], 12 µM; in test [20], 21 µM. The compound also showed a TGI in [19] of 27 µM.

Usually TGI stands for the concentration giving total growth inhibition. Higher therefore signals less potent growth arrest.
